Experiments:
[1] = tested on: dogs with CLM/SM (neuropathic pain); assay: Pilot study and validation of the Questionnaire (CHASE score) in CLM/SM dogs; type: in vivo, dog
Protocol: Please think about how your dog has behaved over the past week and use the scale to tell us how well the phrases describe your dog or what he/she is doing.
Summary values for untransformed and unweighted scores across the five final questions are presented below.
Intervention by a board-certified neurologist and prescription of pregabalin at 5-10 mg/kg twice daily relieved clinical signs and reduced CHASE scores to within the normal range, indicating responsiveness of the questionnaire to standard-of-care medical treatment. […] Using the Questionnaire to solicit owner feedback on disease severity and its impacts on affect and quality of life in this manner, owners and the veterinary neurologist concurred on treatment effects in this 100% of cases. This is to be expected given the potency of pregabalin in the treatment of neuropathic pain; however, no owner assessment tool has ever been reported to detect said effects so sensitively. For example, in a randomized controlled study by Thofner et al. (2020), even the very high dose range of 13 to 19 mg/kg pregabalin yielded concurrence between veterinarian and owner in only 52% of assessments of dogs with CLM/SM.

[2] = tested on: voltage-gated calcium channel α2δ subunits; settings: cited from earlier work
[3] = tested on: dogs with CLM/SM; settings: affected dogs, placebo-controlled treatment trial; cited from earlier work
[4] = tested on: CKCS symptomatic for CLM/SM; settings: cited from earlier work

CC(C)C[C@H](CN)CC(=O)O [pregabalin]
treated dogs exhibiting improvements of at least 5 points ([1]; 8 treated dogs, pregabalin 5-10 mg/kg twice daily): 100% | Questionnaire (CHASE) score, Mean ([1]; Treated CLM/SM dogs, n=8, untransformed and unweighted scores across the five final questions, pregabalin 5-10 mg/kg twice daily): 4.4 | improvements in symptom severity on the Questionnaire ([1]; each of the 8 treated dogs, pregabalin 5-10 mg/kg twice daily): at least 5 points | effect size ([1]; equivalent to improvement of at least 5 points on the Questionnaire): ≥ 1.04 | potency and binding affinity compared with gabapentin [2]: better potency and binding affinity than gabapentin | phantom scratching [3]: effectively reduce phantom scratching | effect size ([4]; CKCS symptomatic for CLM/SM, crossover placebo-controlled): 0.45 | numerical rating scale (NRS) mean score during treatment ([4]; liquid formulation of pregabalin, placebo phase 4.24): 3.17 units

Reference: US20260108484A1, “TREATMENT OF NEUROPATHIC PAIN IN CANINES” ([…] COMPANY, priority 2022, published 2026)
